From ChEMBL document CHEMBL3397035, “Spectral and biological evaluation of a synthetic antimicrobial peptide derived from 1-aminocyclohexane carboxylic acid” (2015)
Converted amounts (≈) assume the structure as drawn. The source made the active and inactive calls. The rule behind the calls is not given here. Square brackets hold non-standard residues; d marks the D form. Peptide text beside a SMILES is read from it. Ac6c = NC1(C(=O)O)CCCCC1

Assays:
Klebsiella aerogenes = assay: Antibacterial activity against Enterobacter aerogenes after 24 hrs by standard broth microdilution method; type: functional
Lipid bilayer [1] = assay: Binding affinity to 3.5 mM small unilamellar vesicles containing 60% POPE/21%POPG/19%POPC with pH 6.8 sodium phosphate buffer by Far-UV-CD spectra
Lipid bilayer [2] = assay: Binding affinity to 3.5 mM small unilamellar vesicles containing POPC with pH 6.8 sodium phosphate buffer by Far-UV-CD spectra
Lipopolysaccharide (LPS) [3] = assay: Binding affinity to lipopolysaccharides collected from Escherichia coli assessed as helical conformation with 40 mM sodium phosphate buffer at pH 6.8
Acinetobacter baumannii = assay: Antibacterial activity against ampicillin, gentamicin, kanamycin, streptomycin, and tetracycline-resistant Acinetobacter baumannii WRAIR clinical isolate 13 after 24 hrs by standard broth microdilution method; type: functional; conditions: WRAIR clinical isolate 13, 24 h
Pseudomonas aeruginosa = assay: Antibacterial activity against Pseudomonas aeruginosa PAO1 after 24 hrs by standard broth microdilution method; type: functional; conditions: PAO1, 24 h
Lipid bilayer [4] = assay: Binding affinity to 3.5 mM small unilamellar vesicles containing 4:1 POPC/POPG with pH 6.8 sodium phosphate buffer by Far-UV-CD spectra
Lipopolysaccharide (LPS) [5] = assay: Binding affinity to lipopolysaccharides collected from Pseudomonas aeruginosa assessed as helical conformation with 40 mM sodium phosphate buffer at pH 6.8
Staphylococcus aureus = assay: Antibacterial activity against methicillin-sensitive Staphylococcus aureus UAMS-1 after 24 hrs by standard broth microdilution method; type: functional; conditions: UAMS-1, 24 h
[6] = Binding affinity to sodium dodecyl sulfate micelles assessed as Lys connectivities with pH 4.4 sodium acetate buffer by TOCSY spectra
[7] = Binding affinity to 80 mM Dodecylphosphocholine micelles assessed as Lys connectivities with pH 4.4 sodium acetate buffer by TOCSY spectra
Klebsiella pneumoniae = assay: Antibacterial activity against ampicillin, azithromycin, chloramphenicol, gentamicin, and tetracycline-resistant Klebsiella pneumoniae BAMS clinical isolate 07-18 after 24 hrs by standard broth microdilution method; type: functional; conditions: BAMS clinical isolate 07-18, 24 h
Lipopolysaccharide (LPS) [8] = assay: Binding affinity to lipopolysaccharides collected from Klebsiella pneumoniae assessed as helical conformation with 40 mM sodium phosphate buffer at pH 6.8
Enterococcus faecium = assay: Antibacterial activity against Enterococcus faecium MMC4 after 24 hrs by standard broth microdilution method; type: functional; conditions: MMC4, 24 h

CC(=O)NCC(=O)N[C@@H](Cc1ccccc1)C(=O)NC1(C(=O)NCC(=O)NC2(C(=O)N[C@@H](CCCCN)C(=O)NC3(C(=O)NCC(=O)NC4(C(=O)N[C@@H](Cc5ccccc5)C(=O)NC5(C(=O)NCC(=O)NC6(C(=O)NCC(=O)N[C@@H](CCCCN)C(=O)NC7(C(=O)N[C@@H](CCCCN)C(=O)N[C@@H](CCCCN)C(=O)N[C@@H](CCCCN)C(=O)N[C@@H](CCCCN)C(N)=O)CCCCC7)CCCCC6)CCCCC5)CCCCC4)CCCCC3)CCCCC2)CCCCC1 (Ac-GF[Ac6c]G[Ac6c]K[Ac6c]G[Ac6c]F[Ac6c]G[Ac6c]GK[Ac6c]KKKK-NH2)
MIC (Klebsiella aerogenes): 21.9 µM (≈ 50 µg/mL)
Activity (Lipid bilayer [1]): Active
Activity (Lipid bilayer [2]): inactive
Activity (Lipopolysaccharide (LPS) [3]): Active
MIC (Acinetobacter baumannii): 10.9 µM (≈ 24.9 µg/mL)
MIC (Pseudomonas aeruginosa): 21.9 µM (≈ 50 µg/mL)
Activity (Lipid bilayer [4]): Active
Activity (Lipopolysaccharide (LPS) [5]): Active
MIC (Staphylococcus aureus): 10.9 µM (≈ 24.9 µg/mL)
Activity [6]: Active
Activity [7]: Active
MIC (Klebsiella pneumoniae): 43 µM (≈ 98.2 µg/mL)
Activity (Lipopolysaccharide (LPS) [8]): Active
MIC (Enterococcus faecium): 10.9 µM (≈ 24.9 µg/mL)
